Assay results published in PubChem BioAssay (NCI).
“And” between values parts separate entries of the source, which are not always exact repeats. Identical values can stand only once.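 Method: 48-hour compound exposure of cells in 96-well plates, five concentrations, linear interpolation of endpoints. GI50 = concentration required for 50% inhibition of growth. Definition used: TGI = concentration required for complete inhibition of growth.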

Legend:
Experiment in all cases: DTP human tumour cell line panel, 48 h
SNB-19 CNS = tested on: SNB-19 CNS
SW-620 colon = tested on: SW-620 colon
OVCAR-5 ovarian = tested on: OVCAR-5 ovarian
OVCAR-4 ovarian = tested on: OVCAR-4 ovarian
KM12 colon = tested on: KM12 colon
NCI-H522 lung = tested on: NCI-H522 lung
HT29 colon = tested on: HT29 colon
LOX IMVI melanoma = tested on: LOX IMVI melanoma
MOLT-4 leukemia = tested on: MOLT-4 leukemia
K-562 leukemia = tested on: K-562 leukemia

| SMILES | GI50 (SNB-19 CNS) | TGI (SNB-19 CNS) | GI50 (SW-620 colon) | TGI (SW-620 colon) [µM] | GI50 (OVCAR-5 ovarian) | TGI (OVCAR-5 ovarian) [µM] | GI50 (OVCAR-4 ovarian) | TGI (OVCAR-4 ovarian) | GI50 (KM12 colon) | TGI (KM12 colon) | GI50 (NCI-H522 lung) | TGI (NCI-H522 lung) | GI50 (HT29 colon) | TGI (HT29 colon) | GI50 (LOX IMVI melanoma) | TGI (LOX IMVI melanoma) | GI50 (MOLT-4 leukemia) | TGI (MOLT-4 leukemia) | GI50 (K-562 leukemia) | TGI (K-562 leukemia) |
| --- | --- | --- | --- | --- | --- | --- | --- | --- | --- | --- | --- | --- | --- | --- | --- | --- | --- | --- | --- | --- |
| Cc1ncc(C(=O)Nc2ccc(CN3CCN(C)CC3)c(C(F)(F)F)c2)cc1C#Cc1cnc(N)cc1C#N | 2.37 µM | 4.67 µM | 0.802 µM | 3.2 | 1.66 µM | 4 | 0.144 µM | 2.64 µM | 0.00758 µM | 1.98 µM | 0.405 µM | 3.24 µM | 0.0481 µM | 2.38 µM | 70.9 nM | 0.8 µM | 0.336 µM | 3.16 µM | 1.67 nM | 3.21 µM |
| C#CCOc1cccc(Nc2ncnc3cc(NC(=O)CCl)ccc23)c1 | 4.98 µM | 18.4 µM | 1.23 µM | 3.25 | 10.3 µM | 23 | 12.1 µM | 35.7 µM | 4.34 µM | 16.8 µM | 1.46 µM | 3.34 µM | 2.08 µM | 6.11 µM | 1190 nM | 2.7 µM | 1.96 µM | 7.42 µM | 628 nM | 4.69 µM |
| O=c1cccccc1[O-].O=c1cccccc1[O-].O=c1cccccc1[O-].[La+3] |  | 84.1 µM |  | > 100 |  | > 100 |  | > 100 µM |  | > 100 µM |  | 84.2 µM |  | > 100 µM |  | > 100 µM |  | > 100 µM |  | > 100 µM |
| Cc1cccc(NC(=O)c2cccc([N+](=O)[O-])c2O)c1C |  | > 100 µM |  | > 100 |  | > 89.2 |  | > 100 µM |  | > 69.4 µM |  | 58 µM |  | > 100 µM |  | > 72.8 µM |  | > 92.7 µM |  | > 31.6 µM |
| O=Cc1c(O)c(C(=O)Nc2ccc3[nH]c(=O)[nH]c3c2)cc2ccccc12 |  | > 100 µM |  | > 100 |  | > 100 |  | > 100 µM |  | > 100 µM |  | > 100 µM |  | > 100 µM |  | > 100 µM |  | > 100 µM |  | > 100 µM |
| Cc1cc(C)cc(NC(N)=S)c1 |  | > 100 µM |  | 18 |  | > 100 |  | > 100 µM |  | > 100 µM |  | > 100 µM |  | > 100 µM |  | 89.5 µM |  | > 100 µM |  | > 100 µM |
| CC1OC(n2cc(F)c(=O)[nH]c2=O)C=CC1=O (stereo not given) |  | 34.8 µM |  | 38.6 |  | 30 |  | 33.6 µM |  | 31.5 µM |  | 23.2 µM |  | 49.3 µM |  | 28.7 µM |  | 69.3 µM |  | > 100 µM |
| Cc1cnc(C(=O)Nc2nc3ccc(S(=O)(=O)Nc4ccc(C5(C(F)(F)F)CC5)cc4)cc3[nH]2)cn1 | 0.553 µM | 13.3 µM | 0.369 µM | 5.92 | 0.785 µM | 10.9 | 2.07 µM | 9.26 µM | 0.309 µM | 13 µM | 0.251 µM | 11.2 µM | 0.364 µM | 10.9 µM | 539 nM | 5.6 µM | 0.501 µM | 14.5 µM | 216 nM | 12.7 µM |
| CN(C)c1ccc(/C=C/c2cc[n+](C)c(/C=C/c3ccc(N(C)C)cc3)c2)cc1 | 0.322 µM | 2.95 µM | 0.336 µM | 5.6 | 0.401 µM | 14.2 | 0.225 µM | 1.01 µM | 0.33 µM | 1.42 µM | 0.267 µM | 1.72 µM | 0.274 µM | 2.65 µM | 356 nM | 1.45 µM | 0.388 µM | 3.53 µM | 163 nM | 3.25 µM |
| NCCCNCCCCNC(=O)C(O)NC(=O)CCCCCCN=C(N)N (stereo not given) | 2080 µM | 750 µM and > 4430 µM | 1900 µM | > 5000 | > 3010 µM | > 5000 | 2490 µM | 619 µM and > 2810 µM | 1360 µM | 619 µM and > 5000 µM | 1350 µM | 636 µM and 2860 µM | > 3580 µM | > 5000 µM | 828000 nM | 750 µM and 1570 µM | 1620 µM | 750 µM and > 4510 µM | 805000 nM | 750 µM and > 3610 µM |
| CCCCCCCc1cc2c3c(nc4ccccc42)C(=O)c2cccnc2-c3n1 | 2.17 µM | 7.31 µM | 1.5 µM | 6.34 | 4.09 µM | 10.7 | 5.74 µM | 13.8 µM | 1.45 µM | 3.11 µM | 1.14 µM | 3.07 µM | 5.99 µM | 27.7 µM | 2190 nM | 7.29 µM | 1.54 µM | > 20.2 µM | 1290 nM | > 24.2 µM |
| COC(=O)[C@@H](C)C[C@H](Cc1ccccc1)NC(=O)c1csc([C@@H](C[C@H](C(C)C)N(C)C(=O)[C@@H](NC(=O)[C@H]2CCCCN2C)C2CC2)OC(C)=O)n1 | 0.000552 µM and 0.00165 µM | > 16.5 µM | 0.000292 µM and 0.00165 µM | > 16.5 | 0.00384 µM and 0.00604 µM | > 16.5 | 0.00909 µM and 0.006 µM | > 16.5 µM | 0.000317 µM and 0.00165 µM | > 16.5 µM | 0.000247 µM and < 0.00165 µM | 0.000988 µM and < 0.00165 µM | 0.000264 µM and 0.00165 µM | 0.00135 µM and 0.00208 µM | 0.562 nM and 1.65 nM | > 16.5 µM | 0.00464 µM and 0.00165 µM | > 16.5 µM | 0.313 nM and 1.65 nM | > 16.5 µM |
| CC(=O)OCc1cc2ccccc2nc1C(Br)(Br)Br |  | 46.2 µM |  | 44.8 |  | 30.7 |  | 30.5 µM |  | 27.6 µM |  | 34 µM |  | 44.9 µM |  | 29.2 µM |  | 28.1 µM |  | 45.4 µM |
| O=c1c(-c2ccccc2)coc2cc(OC/C(=N/O)c3ccccc3)ccc12 | 23.2 µM | 86.9 µM | 20.2 µM | 64.8 | 37 µM | > 100 | 14.9 µM | 47.2 µM | 20.2 µM | 48.3 µM | 7.54 µM | 64.4 µM | 14.7 µM | 53.2 µM | 18400 nM | 37.4 µM | 12.4 µM | > 100 µM | 11300 nM | > 100 µM |
| CC(=O)OCC1OC(n2c(-c3ccc(C)cc3)cc(-c3ccccc3)c(C#N)c2=O)C(OC(C)=O)C(OC(C)=O)C1OC(C)=O (stereo not given) |  | > 100 µM |  | > 100 |  | > 100 |  | > 100 µM |  | > 100 µM |  | > 100 µM |  | > 100 µM |  | > 100 µM |  | > 100 µM |  | > 100 µM |
